Data reported in US8518946B2, “Salts of (R)-7-[3-amino-4-(2,4,5-trifluorophenyl)butanoyl]-3-trifluoromethyl-5,6,7,8-tetrahydroimidazo[1,5-a] pyrazine-1-carboxylic acid, preparation method and medical use thereof” (Jiangsu Hengrui Medicine Co., Ltd., priority 2009, dated 2013).
≈ marks a conversion by molar mass, not a printed value. Read-outs that look alike come from different tables or passages of the source. Blank lines part the entries; values can stand above or below the molecule they belong to.

How the values were obtained:
[1] = Solubility experiment in four systems; format: physicochemical
Procedure: According to the conventional solubility measurement, the solubility of the test samples were determined in four different systems: phosphate buffer solution (PBS, pH=7.4), methanol, 0.1% hydrochloric acid and water.

[2] = target: T1, DPP-IV (Homo sapiens, UniProt P27487); test: DPP-IV inhibition, Promega DPPIV-Glo Protease Assay; format: biochemical
T1 construct: purchased Calbiochem 317630
T1 sequence (P27487 whole entry): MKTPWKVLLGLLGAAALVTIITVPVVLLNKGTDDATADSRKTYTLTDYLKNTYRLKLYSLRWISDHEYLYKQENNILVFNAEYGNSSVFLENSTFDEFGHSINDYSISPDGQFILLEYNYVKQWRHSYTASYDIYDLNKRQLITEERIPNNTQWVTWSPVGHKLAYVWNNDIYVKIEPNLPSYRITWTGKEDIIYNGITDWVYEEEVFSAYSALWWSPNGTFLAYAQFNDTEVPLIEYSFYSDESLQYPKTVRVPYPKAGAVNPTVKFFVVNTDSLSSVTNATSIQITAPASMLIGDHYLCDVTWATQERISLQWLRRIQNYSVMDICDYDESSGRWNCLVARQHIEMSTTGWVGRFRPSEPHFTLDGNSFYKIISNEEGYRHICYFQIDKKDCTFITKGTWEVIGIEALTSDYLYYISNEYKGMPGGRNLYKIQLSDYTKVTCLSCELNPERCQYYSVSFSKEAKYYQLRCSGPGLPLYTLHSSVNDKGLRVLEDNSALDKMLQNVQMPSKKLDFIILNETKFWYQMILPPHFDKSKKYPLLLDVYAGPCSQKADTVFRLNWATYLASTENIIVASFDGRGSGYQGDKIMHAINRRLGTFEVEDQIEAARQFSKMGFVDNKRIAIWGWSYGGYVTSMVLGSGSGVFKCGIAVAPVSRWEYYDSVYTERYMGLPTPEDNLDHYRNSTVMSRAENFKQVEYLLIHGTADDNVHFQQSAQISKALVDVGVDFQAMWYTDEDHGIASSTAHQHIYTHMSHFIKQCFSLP
Procedure: (§1) The compounds of the present invention were tested to determine their DPP-IV, DPP-VIII, DPP-IX inhibition activity according to the following methods. The half inhibition concentrations IC50 (the concentration of the test compound showing 50% inhibition to the enzyme activity) of each compound were determined by reaction test and calculation of the mixture of fixed amounts of enzyme and substrate with several different concentrations of the test compounds.
(§2) The compounds of the present invention were tested to determine the DPP-IV, DPP-VIII, DPP-IX inhibition activity in the following tests using Promega DPPIV-Glo™ Protease Assay (Cat No. G8350/G8351) Kit, wherein:
a. DPP-IV enzyme bought from Calbiochem, Catalog no. 317630;
(§3) The preparation procedure of the conventional reagent such as DPPIV-Glo buffer, luciferin reagents needed in the test and the detail operation of the test can refer to the specifications of the kits. The assay was carried out as following steps:
(§4) The tested compounds were dissolved in DMSO to prepare a series of different concentrations of the test compound solution. DPPIV-Glo buffer and the freezing luciferin detection reagent were equilibrated to room temperature. The luciferin detection reagent was dissolved in moderate buffer in a brown flask to form a solution. Then DPP-IV-Glo. was dissolved in ultrapure water to give the appropriate concentration. The substrate solution and the luciferin detection reagent solution were mixed sufficiently in an appropriate ratio (the ratio of the invention is 1:49), and the mixture was layed at room temperature for 30-60 minutes. Tris buffer (2 mM, pH 8.0), the test compounds and DPP-IV (DPP-VIII or DPP-IX) were mixed and then transferred to a 96-well plate. Each test contains double-well of three-well control. The same volume of DMSO was added to the negative control and blank control. Then the 96-well plate was added with mixed solution of luciferin detection reagent and substrate to initiate the reaction. The 96-wells plate was incubated at room temperature on a plate shaker for 40 minutes after sealed. The strength of the fluorescent signal in each well was determined by microplate reader and the inhibition rate to the enzyme of the compound at this concentration was calculated by the formula as following: inhibitory rate: IR=[1−(S−B)/(N−B)]*100% • S: value of the sample • B: value of the blank control • N: value of the negative control
(§5) IC50 of the test compounds can be calculated by the inhibition rate at different concentration.

[3] = target: T2, DPP-VIII (Homo sapiens, UniProt Q6V1X1); test: DPP-VIII inhibition, Promega DPPIV-Glo Protease Assay; format: biochemical; conditions: read-out: IC50 DPP8
T2 construct: purchased Bioscience 80080
T2 sequence (Q6V1X1 whole entry): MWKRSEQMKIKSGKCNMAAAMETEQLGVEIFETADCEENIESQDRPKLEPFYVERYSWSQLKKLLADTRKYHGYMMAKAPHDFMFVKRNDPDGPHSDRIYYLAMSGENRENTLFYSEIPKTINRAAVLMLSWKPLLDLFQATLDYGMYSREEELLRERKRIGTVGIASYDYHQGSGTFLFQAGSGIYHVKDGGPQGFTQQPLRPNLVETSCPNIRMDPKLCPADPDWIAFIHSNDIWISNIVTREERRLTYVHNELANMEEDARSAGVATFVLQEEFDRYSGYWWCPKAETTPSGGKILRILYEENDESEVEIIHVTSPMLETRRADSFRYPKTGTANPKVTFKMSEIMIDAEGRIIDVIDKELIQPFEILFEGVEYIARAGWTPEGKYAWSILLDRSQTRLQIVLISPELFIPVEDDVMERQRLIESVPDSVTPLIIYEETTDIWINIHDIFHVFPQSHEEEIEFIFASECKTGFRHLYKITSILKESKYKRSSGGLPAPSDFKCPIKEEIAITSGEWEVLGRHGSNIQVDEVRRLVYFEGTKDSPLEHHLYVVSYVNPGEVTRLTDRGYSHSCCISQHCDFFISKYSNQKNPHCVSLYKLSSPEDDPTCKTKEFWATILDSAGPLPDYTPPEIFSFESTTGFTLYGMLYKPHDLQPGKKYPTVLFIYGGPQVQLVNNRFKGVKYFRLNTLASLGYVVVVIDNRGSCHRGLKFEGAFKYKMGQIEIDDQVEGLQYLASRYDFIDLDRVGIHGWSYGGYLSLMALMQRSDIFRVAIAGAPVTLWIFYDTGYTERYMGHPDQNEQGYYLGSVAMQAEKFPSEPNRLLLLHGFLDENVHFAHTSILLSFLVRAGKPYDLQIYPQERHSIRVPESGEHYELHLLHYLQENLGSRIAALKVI
Procedure: as §1, §2
b. DPP-VIII enzyme bought from Bioscience, Catalog no. 80080;
as §3, §4, §5

[4] = target: T3, DPP-IX (Homo sapiens, UniProt Q86TI2); test: DPP-IX inhibition, Promega DPPIV-Glo Protease Assay; format: biochemical; conditions: read-out: IC50 DPP9
T3 construct: purchased Bioscience 80090
T3 sequence (Q86TI2 whole entry): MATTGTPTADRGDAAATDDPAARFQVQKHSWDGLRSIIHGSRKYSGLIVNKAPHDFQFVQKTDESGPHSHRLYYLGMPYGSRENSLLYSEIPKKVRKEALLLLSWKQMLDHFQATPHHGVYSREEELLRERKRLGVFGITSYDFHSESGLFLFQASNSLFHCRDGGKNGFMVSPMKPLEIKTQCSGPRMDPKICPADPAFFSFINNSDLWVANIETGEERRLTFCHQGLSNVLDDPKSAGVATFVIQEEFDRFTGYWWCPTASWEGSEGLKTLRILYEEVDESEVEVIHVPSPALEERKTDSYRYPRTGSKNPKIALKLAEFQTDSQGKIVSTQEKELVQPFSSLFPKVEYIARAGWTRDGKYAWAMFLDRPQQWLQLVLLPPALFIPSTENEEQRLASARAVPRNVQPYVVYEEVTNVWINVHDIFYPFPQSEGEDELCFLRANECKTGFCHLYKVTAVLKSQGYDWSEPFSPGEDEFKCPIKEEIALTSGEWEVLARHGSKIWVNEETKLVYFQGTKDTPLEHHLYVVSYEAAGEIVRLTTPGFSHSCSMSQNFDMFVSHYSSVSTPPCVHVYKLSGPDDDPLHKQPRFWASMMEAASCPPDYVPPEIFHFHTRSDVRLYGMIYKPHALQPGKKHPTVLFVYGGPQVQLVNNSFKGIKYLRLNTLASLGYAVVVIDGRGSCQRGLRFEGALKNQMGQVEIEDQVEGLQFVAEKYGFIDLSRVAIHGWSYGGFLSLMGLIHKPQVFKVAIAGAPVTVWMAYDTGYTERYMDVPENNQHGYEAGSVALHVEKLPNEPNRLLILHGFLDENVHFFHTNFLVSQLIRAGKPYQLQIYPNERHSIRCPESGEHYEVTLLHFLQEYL
Procedure: as §1, §2
c. DPP-IX enzyme bought from Bioscience, Catalog no. 80090.
as §3, §4, §5

[5] = Pharmacokinetics assay in rats (LC/MS/MS plasma concentration); format: in vivo, SD rats; conditions: for F: intragastric 3.0 mg/kg (as free base), absolute bioavailability from AUC0-t vs vein injection
Source text: The compound of Example 3 was administrated intragastrically or tail vein injection to rats and the compounds of Example 1-4, Example 9 and Example 11-12 were administrated intragastrically to determine the drug concentration in plasma at different time points by LC/MS/MS measurement. The pharmacokinetics of the compounds of the present invention was studied and evaluated in rats. And the oral absolute bioavailability was investigated.
Compounds of Example 1-4, Example 9 and Example 11-12.
[…] healthy adult SD rats, male and female in half, were purchased from SINO-BRITSH SIPPR/BK LAB.ANIMAL LTD., CO, License number: SCXK (Shanghai) 2008-0016.
Vein injection group: the proper weighed test compound was dissolved in 0.5 mL of DMSO by ultrasound and then diluted with normal saline to 15 mL to form a 0.3 mg/mL solution.
Intragastrically administered group: the proper weighed test compound was dissolved in 0.5% CMC-Na by ultrasound to form a 0.3 mg/mL of suspension.
32 healthy adult SD rats, male and female in half, were divided into 8 groups so that each group consisted 4 rats. After an overnight fast, the rats were tail vein injected of the compound of Example 3 and intragastrically administered the compound of Example 3 and the salt thereof, at a dose of 3.0 mg/kg (calculated as the free base form) and a volume of 10 mL/kg.
Blood samples (0.2 mL) of the rats in vein injection group were taken from eye socket at pre administration and at 2, 15, 30 minutes and 1.0, 2.0, 4.0, 6.0, 8.0, 12.0, 24.0 hours post administration, which were stored in heparinized tubes and centrifuged for 10 minutes at 3,500 rpm. The plasma samples were stored at −20° C. until analysis. The rats were fed 2 hours after administration.
Blood samples of the rats in intragastrically administered group were taken at pre administration and at 0.5, 1.0, 2.0, 3.0, 4.0, 6.0, 8.0, 12.0, 24.0 hours post administration. The samples were treated with the same method as mentioned above.
50 μL of internal standard solution and 150 μL of methanol were added to 50 μL of rat plasma obtained at various time points after administration. Then the mixture was mixed for 3 minutes using a vortexer and centrifuged for 10 minutes at 13,500 rpm. 10 μL of the supernatant was analyzed by LC/MS/MS.
The compartmental model of pharmacokinetics was fitted for the test compounds and the major pharmacokinetic parameters were calculated by DAS 2.0 software in which Cmax and tmax were the actually measured values. The absolute bioavailability was calculated by AUC0-t taken from post administration and vein injection.

[6] = tested on: normal ICR mice; test: Hypoglycemic effect, oral glucose tolerance in normal ICR mice; format: in vivo; conditions: 10 mg/kg by gavage, glucose 4 g/kg 15 minutes after administration, 10 mg/kg
Procedure: To observe the effects on oral glucose tolerance of the compounds of Example 1-4 and Example 8-12 in normal ICR mice (SINO-BRITSH SIPPR/BK LAB.ANIMAL LTD., CO), the hypoglycemic effects in vivo have been evaluated using blood-glucose meter to measure and analyze the sugar content of the samples at different time points during 2 hours. The samples were taken from the mouse's tail.
The administration dose was 10 mg/kg, and the blank was administered with water. Both groups contained 5% DMSO.
The mice were administered by gavage. 4 g/kg of 10% glucose solution was administered (0.8 mL to each mice) 15 minutes after administration.
The mice were administered according to above dose (the blank group was administrated with 5% DMSO aqueous solution) and the blood sugar value was measured (−15 minutes).
15 minutes after administration, the mice were administered of 4 g/kg of 20% glucose solution and the values of blood sugar were tested by Roche ACCU-CHEK at 0, 15, 30, 45, 60, 120 minutes.

[7] = intragastric 3.0 mg/kg, phosphate

SMILES: N[C@@H](CC(=O)N1CCn2c(C(F)(F)F)nc(C(=O)O)c2C1)Cc1cc(F)c(F)cc1F [Example 2, (R)-7-[3-Amino-4-(2,4,5-trifluorophenyl)butanoyl]-3-trifluoromethyl-5,6,7,8-tetrahydro-imidazo[1,5-a]pyrazine-1-carboxylic acid phosphate]
Solubility Value, 0.1% HCl ([1]; 0.1% hydrochloric acid, phosphate): 32.5 mg/mL
Solubility Value, PBS (pH 7.4) ([1]; PBS pH 7.4, phosphate): 20.2 mg/mL
Solubility Value, methanol ([1]; methanol, phosphate): 37.5 mg/mL
Solubility Value, water ([1]; water, phosphate): 26.1 mg/mL
IC50 [2]: 0.015 µM
IC50 [3]: 400 µM
IC50 [4]: 185 µM
pharmacokinetics and bioavailability (conclusion in words) ([5]; compared with other compounds): improved obviously
F ([5]; phosphate): 8.63%
AUC(0-t) [5, 7]: 198.1 ± 57.4 ng·h/mL
CL/F [5, 7]: 270 ± 75.8 mL/min/kg
Cmax [5, 7]: 66.6 ± 36.4 ng/mL
MRT [5, 7]: 4.05 ± 3.66 h
Tmax [5, 7]: 0.92 ± 0.58 h
t1/2 [5, 7]: 1.69 ± 1.24 h
Hypoglycemic rate of blood sugar of 30 minutes after administration ([6]; phosphate): 29.96%

SMILES: N[C@@H](CC(=O)N1CCn2c(C(F)(F)F)nc(C(=O)O)c2C1)Cc1cc(F)c(F)cc1F [Example 3, (R)-7-[3-Amino-4-(2,4,5-trifluorophenyl)butanoyl]-3-trifluoromethyl-5,6,7,8-tetrahydro-imidazo[1,5-a]pyrazine-1-carboxylic acid]
Solubility Value, 0.1% HCl ([1]; 0.1% hydrochloric acid): 20.5 mg/mL (≈ 45.5 mM)
Solubility Value, PBS (pH 7.4) ([1]; PBS pH 7.4): 7.0 mg/mL
Solubility Value, methanol ([1]; methanol): 32.7 mg/mL (≈ 72.6 mM)
Solubility Value, water ([1]; water): 9.2 mg/mL (≈ 20.4 mM)
IC50 [2]: 0.013 µM
IC50 [3]: 236 µM
IC50 [4]: 125 µM
half-life ([5]; both sexes, SD, rat, plasma, iv, 3 mg/kg, tail vein injection 3.0 mg/kg): 2.35 ± 1.9 h
AUC(0-t) ([5]; both sexes, SD, rat, plasma, iv, 3 mg/kg, tail vein injection 3.0 mg/kg, read-out: AUC0-t): 2300 ± 353 ng·h/mL
MRT ([5]; both sexes, SD, rat, plasma, iv, 3 mg/kg, tail vein injection 3.0 mg/kg, read-out: MRT): 0.22 ± 0.06 h
AUC(0-t) ([5]; intragastric 3.0 mg/kg): 58.3 ± 17.3 ng·h/mL
CL/F ([5]; intragastric 3.0 mg/kg): 862 ± 267 mL/min/kg
Cmax ([5]; intragastric 3.0 mg/kg): 13.4 ± 5.6 ng/mL
MRT ([5]; intragastric 3.0 mg/kg): 4.45 ± 1.01 h
Tmax ([5]; intragastric 3.0 mg/kg): 1.00 ± 0.00 h
t1/2 ([5]; intragastric 3.0 mg/kg): 2.73 ± 0.73 h
F [5]: 2.54%
CL/F ([5]; tail vein injection 3.0 mg/kg): 22.2 ± 3.33 mL/min/kg
Hypoglycemic rate of blood sugar of 30 minutes after administration [6]: 25.60%

More lines, main results first:

solubility ([1]; 0.1% hydrochloric acid, simulated gastric fluid, 0.1% hydrochloric acid, read-out: Solubility Value, 0.1% HCl): 101 mg/mL
solubility ([1]; methanol, organic solvent or mixture, methanol, read-out: Solubility Value, methanol): 50.3 mg/mL
solubility ([1]; phosphate buffer solution (PBS), pH 7.4, aqueous buffer, PBS pH 7.4, read-out: Solubility Value, PBS (pH 7.4)): 60.5 mg/mL
solubility ([1]; water, read-out: Solubility Value, water): 40.2 mg/mL
IC50 [2]: 0.025 µM
IC50 [3]: 80.5 µM
IC50 [4]: 50.6 µM
SMILES: N[C@@H](CC(=O)N1CCn2c(C(F)(F)F)nc(C(=O)[O-])c2C1)Cc1cc(F)c(F)cc1F.[Li+] [Example 5, Lithium (R)-7-[3-amino-4-(2,4,5-trifluorophenyl)butanoyl]-3-trifluoromethyl-5,6,7,8-tetrahydro-imidazo[1,5-a]pyrazine-1-carboxylate]

Solubility Value, 0.1% HCl ([1]; 0.1% hydrochloric acid): 8.3 mg/mL
Solubility Value, PBS (pH 7.4) ([1]; PBS pH 7.4): 0.2 mg/mL
Solubility Value, methanol ([1]; methanol): 20.1 mg/mL
Solubility Value, water ([1]; water): 0.5 mg/mL
IC50 [3]: 152 µM
IC50 [4]: 136 µM
SMILES: N[C@@H](CC(=O)N1CCn2c(C(F)(F)F)nc(C(=O)O)c2C1)Cc1cc(F)c(F)cc1F [Example 8, Triethylammonium (R)-7-[3-amino-4-(2,4,5-trifluorophenyl)butanoyl]-3-(trifluoromethyl)-5,6,7,8-tetrahydro-imidazo[1,5-a]pyrazine-1-carboxylate]
Hypoglycemic rate of blood sugar of 30 minutes after administration [6]: 19.82%

Solubility Value, 0.1% HCl ([1]; 0.1% hydrochloric acid): 15.2 mg/mL
Solubility Value, PBS (pH 7.4) ([1]; PBS pH 7.4): 1.2 mg/mL
Solubility Value, methanol ([1]; methanol): 40.3 mg/mL
Solubility Value, water ([1]; water): 1.5 mg/mL
IC50 [2]: 0.023 µM
IC50 [3]: 210 µM
IC50 [4]: 166 µM
SMILES: N[C@@H](CC(=O)N1CCn2c(C(F)(F)F)nc(C(=O)O)c2C1)Cc1cc(F)c(F)cc1F [Example 10, 2-Hydroxyethyl(trimethyl)ammonium (R)-7-[3-Amino-4-(2,4,5-trifluorophenyl)-butanoyl]-3-trifluoromethyl-5,6,7,8-tetrahydro-imidazo[1,5-a]pyrazine-1-carboxylate]
Hypoglycemic rate of blood sugar of 30 minutes after administration [6]: 20.92%
